Assays:
[1] = Compound was evaluated for its pharmacokinetic parameter maximum plasma concentration (Cmax) after oral administration to rats; format: ADME, organism-based; design: route oral; details: rat
Prothrombin = Prothrombin (Homo sapiens, UniProt P00734); experiment: Binding affinity against human thrombin
Serine protease 1 = molecular target: T1, Serine protease 1 (Bos taurus, UniProt P00760); experiment: Binding affinity against bovine trypsin
T1 sequence (P00760 whole entry): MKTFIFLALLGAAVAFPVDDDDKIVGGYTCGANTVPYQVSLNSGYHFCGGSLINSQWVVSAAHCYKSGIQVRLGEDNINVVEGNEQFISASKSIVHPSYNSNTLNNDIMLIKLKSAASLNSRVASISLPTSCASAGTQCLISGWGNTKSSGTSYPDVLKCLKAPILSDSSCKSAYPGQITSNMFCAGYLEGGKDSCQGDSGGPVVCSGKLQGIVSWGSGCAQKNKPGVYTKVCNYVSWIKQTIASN

[2] = Compound was evaluated for its pharmacokinetic parameter maximum area under curve AUCmax; format: ADME, organism-based; design: time AUCmax; details: rat, in vivo
Rattus norvegicus [3] = experiment: Compound was evaluated for its ability to inhibit thrombus formation in rat model of venous thrombosis at a dose 0.5 mg/kg; details: read-out: Inhibition
Rattus norvegicus [4] = experiment: Compound was evaluated for its ability to inhibit thrombus formation in rat model of venous thrombosis at a dose 1 mg/kg; details: read-out: Inhibition
Coagulation factor X [5] = molecular target: T2, Coagulation factor X (Homo sapiens, UniProt P00742); experiment: Binding affinity for human Coagulation factor Xa; Inactive
Coagulation factor X [6] = molecular target: T2, Coagulation factor X; experiment: Compound was evaluated for the binding affinity against human Coagulation factor Xa
Rattus norvegicus [7] = experiment: Compound at a dose 5 mg/kg was administered intravenously and evaluated for its ability to inhibit thrombus formation in rat model of venous thrombosis; value ranges from 30-67%; format: functional; details: route intravenous
Rattus norvegicus [8] = experiment: Compound (dose 5 mg/kg) was administered intravenously and evaluated for its ability to inhibit thrombus formation in rat model of venous thrombosis; value ranges from 30-67%; format: functional; details: route intravenous
Rattus norvegicus [9] = experiment: Compound at a dose 1 mg/kg was administered intravenously and evaluated for its ability to inhibit thrombus formation in rat model of venous thrombosis; format: functional; details: route intravenous
Rattus norvegicus [10] = species: Rattus norvegicus; experiment: animal or person; details: iv, read-out: Inhibition

T2 sequence (P00742 41-179 limits assumed): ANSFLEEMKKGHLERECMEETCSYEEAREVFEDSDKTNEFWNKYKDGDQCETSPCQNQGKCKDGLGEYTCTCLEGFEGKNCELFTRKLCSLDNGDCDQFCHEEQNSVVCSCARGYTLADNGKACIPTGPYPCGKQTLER
T2 sequence (P00742 235-488 limits assumed): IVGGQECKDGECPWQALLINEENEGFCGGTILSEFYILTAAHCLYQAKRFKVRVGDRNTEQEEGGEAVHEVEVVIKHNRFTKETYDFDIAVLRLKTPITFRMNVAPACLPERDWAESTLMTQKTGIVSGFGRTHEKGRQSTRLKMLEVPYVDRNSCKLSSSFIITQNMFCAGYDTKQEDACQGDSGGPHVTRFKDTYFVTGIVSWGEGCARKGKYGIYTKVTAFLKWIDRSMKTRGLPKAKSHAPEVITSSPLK

Compound	Ki (Prothrombin) [nM]	Ki (Serine protease 1) [nM]	Ki (Coagulation factor X [5])	Cmax [1] [ng/mL]	AUC [2] [µg·h/mL]	other results
N=C(N)c1ccc(CNC(=O)[C@@H]2CCCN2C(=O)[C@H](NS(=O)(=O)NC2CCCCC2)C(c2ccccc2)c2ccccc2)cc1.O=C(O)C(F)(F)F	0.003	0.25		< 300		
N=C(N)c1ccc(CNC(=O)[C@@H]2CCCN2C(=O)[C@H](NS(=O)(=O)Cc2ccccc2)C(c2ccccc2)c2ccccc2)cc1.O=C(O)C(F)(F)F	0.005	0.58		900	68	
N=C(N)c1ccc(CNC(=O)[C@@H]2CCCN2C(=O)[C@H](NS(N)(=O)=O)C(c2ccccc2)c2ccccc2)cc1.O=C(O)C(F)(F)F	0.003	0.3		2800	272	inhibition in vivo at 0.5 mg/kg (Rattus norvegicus [3]): 80%; inhibition in vivo at 1 mg/kg (Rattus norvegicus [4]): 100%
N=C(N)c1ccc(CNC(=O)[C@@H]2CCCN2C(=O)[C@H](NCC(=O)O)C(c2ccccc2)c2ccccc2)cc1.O=C(O)C(F)(F)F	0.015	3		1300	120	
N=C(N)c1ccc(CNC(=O)[C@@H]2CCCN2C(=O)[C@H](Nc2ccccc2)C(c2ccccc2)c2ccccc2)cc1.O=C(O)C(F)(F)F		1.5		300	53	
COP(=O)(N[C@@H](C(=O)N1CCC[C@H]1C(=O)NCc1ccc(C(=N)N)cc1)C(c1ccccc1)c1ccccc1)OC.O=C(O)C(F)(F)F	0.044	2.9		4000	271	
N=C(N)c1ccc(CNC(=O)[C@@H]2CCCN2C(=O)[C@H](NS(=O)(=O)O)C(c2ccccc2)c2ccccc2)cc1.O=C(O)C(F)(F)F	0.1	4.4		550	35	
COC(=O)N[C@@H](C(=O)N1CCC[C@H]1C(=O)NCc1ccc(C(=N)N)cc1)C(c1ccccc1)c1ccccc1.O=C(O)C(F)(F)F	0.036	0.31		3900	594	
CC(=O)N[C@@H](C(=O)N1CCC[C@H]1C(=O)NCc1ccc(C(=N)N)cc1)C(c1ccccc1)c1ccccc1.O=C(O)C(F)(F)F	0.16			3000	244	
N=C(N)c1ccc(CNC(=O)[C@@H]2CCCN2C(=O)[C@H](N)C(c2ccccc2)c2ccccc2)cc1.O=C(O)C(F)(F)F		2.5		1400	107	
CS(=O)(=O)N[C@H](Cc1ccc(Cl)c(Cl)c1)C(=O)N1CCC[C@H]1C(=O)NCc1ccc(C(=N)N)cc1	0.05	0.8				Ki (Coagulation factor X [6]): 120 nM
CS(=O)(=O)N[C@@H](C(=O)N1CCC[C@H]1C(=O)NCc1ccc(C(=N)N)cc1)C1CCCCC1	0.5	9.9				Ki (Coagulation factor X [6]): 5000 nM
COC(=O)N[C@@H](C(=O)N1CCC[C@H]1C(=O)NCC#Cc1c[nH]cn1)C(c1ccccc1)c1ccccc1		24000				
CS(=O)(=O)N[C@H](CC1CCCCC1)C(=O)N1CCC[C@H]1C(=O)NCc1ccc(C(=N)N)cc1	0.02	1.3				Ki (Coagulation factor X [6]): 200 nM

Continued, in another order:

Ki (Prothrombin) [nM]	Ki (Serine protease 1) [nM]	Ki (Coagulation factor X [5])	Compound	Cmax [1] [ng/mL]	AUC [2] [µg·h/mL]	other results
105		Not Active	CC(=O)N[C@@H](C(=O)N1CCC[C@H]1C(=O)NCc1ccc(C(=N)NN)s1)C(c1ccccc1)c1ccccc1			
31	1100	Not Active	N=C(NN)c1ccc(CNC(=O)[C@@H]2CCCN2C(=O)[C@H](NCC(=O)O)C(c2ccccc2)c2ccccc2)s1			
	85	Not Active	CS(=O)(=O)N[C@@H](C(=O)N1CCC[C@H]1C(=O)NCc1ccc(CN)s1)C(c1ccccc1)c1ccccc1			inhibition in vivo at 5 mg/kg (Rattus norvegicus [7]): 30%
2.4	68	Not Active	CS(=O)(=O)N[C@@H](C(=O)N1CCC[C@H]1C(=O)NCc1cc(CN)cs1)C(c1ccccc1)c1ccccc1			inhibition in vivo at 5 mg/kg (Rattus norvegicus [8]): 30%
0.003	0.7		CS(=O)(=O)N[C@@H](C(=O)N1CCC[C@H]1C(=O)NCc1ccc(C(=N)N)cc1)C(c1ccccc1)c1ccccc1	2700	263	Ki (Coagulation factor X [6]): 300 nM; inhibition in vivo at 1 mg/kg (Rattus norvegicus [9]): 70%
		Not Active	CC(C)(C)OC(=O)N[C@@H](C(=O)N1CCC[C@H]1C(=O)NCc1ccc(C(=N)NN)s1)C(c1ccccc1)c1ccccc1			
2.2	250		CS(=O)(=O)N[C@@H](C(=O)N1CCC[C@H]1C(=O)NCc1cc(C(N)=NN)cs1)C(c1ccccc1)c1ccccc1			Ki (Coagulation factor X [6]): 59000 nM
12	11	Not Active	CS(=O)(=O)N[C@@H](C(=O)N1CCC[C@H]1C(=O)NCc1ccc(CN)c(N)c1)C(c1ccccc1)c1ccccc1			
32	110	Not Active	Cc1cc(CNC(=O)[C@@H]2CCCN2C(=O)[C@H](NS(C)(=O)=O)C(c2ccccc2)c2ccccc2)ccc1CN			
1.8	540	Not Active	CS(=O)(=O)N[C@@H](C(=O)N1CCC[C@H]1C(=O)NCc1csc(C(=N)NN)c1)C(c1ccccc1)c1ccccc1			
6	220	Not Active	CS(=O)(=O)N[C@@H](C(=O)N1CCC[C@H]1C(=O)NCc1ccc(CN)nc1)C(c1ccccc1)c1ccccc1			inhibition in vivo at 5 mg/kg (Rattus norvegicus [10]): 30%
	12		CS(=O)(=O)N[C@@H](C(=O)N1CCC[C@H]1C(=O)NCc1ccc(/C(N)=N/N)s1)C(c1ccccc1)c1ccccc1			Ki (Coagulation factor X [6]): 193 nM
4	9.9	Not Active	CS(=O)(=O)N[C@@H](C(=O)N1CCC[C@H]1C(=O)NCc1ccc(CN)cc1)C(c1ccccc1)c1ccccc1			inhibition in vivo at 5 mg/kg (Rattus norvegicus [10]): 30%
0.005	0.6		CS(=O)(=O)N[C@@H](C(=O)N1CCC[C@H]1C(=O)NCc1ccc(C(=N)N)s1)C(c1ccccc1)c1ccccc1			Ki (Coagulation factor X [6]): 360 nM
	606		CS(=O)(=O)N[C@@H](C(=O)N1CCC[C@H]1C(=O)NCc1csc(CN)c1)C(c1ccccc1)c1ccccc1			Ki (Coagulation factor X [6]): 100000 nM; inhibition in vivo at 5 mg/kg (Rattus norvegicus [10]): 30%
47	150	Not Active	CS(=O)(=O)N[C@@H](C(=O)N1CCC[C@H]1C(=O)NCc1ccc(C(=N)NN)cc1)C(c1ccccc1)c1ccccc1			
